# Assay results reported in paper PMC6079014, “Calcium is an essential cofactor for metal efflux by the ferroportin transporter family” (Nature Communications, 2018).
# Read-outs that look alike come from different tables or passages of the source.
# Key:
# [1] = biological target: wild type BbFpn (Bdellovibrio bacteriovorus, UniProt Q6MLJ0); assay: biochemical; assay type: binding, Bdellovibrio bacteriovorous
# [2] = biological target: T1, human Fpn (Homo sapiens, UniProt Q9NP59); assay: Radiotracer metal efflux assay in Xenopus oocytes expressing human Fpn; assay type: cell-based; settings: for Effect on 55Fe efflux of pharmacologically raising the cytosolic Ca2+ concentration: 1 µM ionomycin (IMN) or 2 µM thapsigargin (THG), media with 0.2% DMSO; for Ability of other alkaline-earth metals to substitute for Ca2+ in activating 55Fe efflux: Ca2+-free media, 2 mM Sr or Ba plus 1 mM Mg2+, or 3 mM Mg2+
# T1 construct: expressed in transfected cells; host or cells: Xenopus laevis oocytes injected with Fpn RNA
# T1 sequence (Q9NP59 1-571): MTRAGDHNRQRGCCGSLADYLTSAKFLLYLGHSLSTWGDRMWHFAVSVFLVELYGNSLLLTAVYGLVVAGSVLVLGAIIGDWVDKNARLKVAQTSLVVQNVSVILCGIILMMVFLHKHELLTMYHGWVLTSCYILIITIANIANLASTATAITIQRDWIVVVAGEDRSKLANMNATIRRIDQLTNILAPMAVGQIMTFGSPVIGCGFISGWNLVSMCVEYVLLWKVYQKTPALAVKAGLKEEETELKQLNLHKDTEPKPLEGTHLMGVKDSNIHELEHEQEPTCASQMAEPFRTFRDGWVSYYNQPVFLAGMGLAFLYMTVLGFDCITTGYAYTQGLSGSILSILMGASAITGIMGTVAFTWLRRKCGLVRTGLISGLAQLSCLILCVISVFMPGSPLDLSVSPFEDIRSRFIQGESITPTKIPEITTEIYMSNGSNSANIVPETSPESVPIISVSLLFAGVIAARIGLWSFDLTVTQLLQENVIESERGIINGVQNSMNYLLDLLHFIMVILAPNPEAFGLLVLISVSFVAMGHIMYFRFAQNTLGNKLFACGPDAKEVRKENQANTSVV
# Procedure: We performed laparotomy and ovariectomy on adult female Xenopus laevis frogs (Nasco, Fort Atkinson, WI) under 2-aminoethylbenzoate methanesulfonate anesthesia (0.2%, by immersion, to effect) following a protocol approved by the University of Cincinnati Institutional Animal Care and Use Committee. Ovarian tissue was isolated and treated for 3 h with […] collagenase A (Roche Diagnostics Corp., Indianapolis, IN) in calcium-free-modified Barths’ medium (MBM) of composition 88 mM NaCl, 1 mM KCl, 2.4 mM NaHCO3, 1.57 mM MgSO4, 0.66 mM NaNO3, 10 mM 4-(2-hydroxyethyl)-1-piperazineethanesulfonic acid (HEPES), buffered to pH 7.5 by using 2-amino-2-hydroxymethyl-propane-1,3-diol (Tris base). We isolated defolliculate stage V–VI oocytes stored at 17 °C in MBM of composition 88 mM NaCl, 1 mM KCl, 2.4 mM NaHCO3, 0.82 MgSO4, 0.75 mM CaCl2, 0.66 mM NaNO3, 10 mM HEPES, buffered to pH 7.5 by using Tris base, with 50 mg l^−1 ciprofloxacin. We expressed in Xenopus oocytes the 1A transcript form of human Fpn fused at its C-terminus with the enhanced green fluorescent protein (GFP) as described. Oocytes were injected with ∼50 ng of Fpn RNA and incubated for 4–6 days before being used in functional assays. Control oocytes were noninjected.
# We measured metal efflux from oocytes expressing Fpn by using a radiotracer assay. Radiochemicals ^55Fe, ^45Ca, ^57Co, ^65Zn were obtained from Perkin-Elmer Life Science Products (Boston, MA) and ^63Ni from the National Isotope Development Center (Oak Ridge, TN). We used ^55Fe (added as FeCl3) at final specific activity 0.4–2.0 GBq mg^−1, ^45Ca (added as CaCl2) at final specific activity 0.5–0.9 GBq mg^−1, ^57Co (added as CoCl2) at final specific activity 1.6 GBq mg^−1, ^65Zn (added as ZnCl2) at final specific activity 0.2 GBq mg^−1, and ^63Ni (added as NiCl2) at final specific activity 0.6 GBq mg^−1. Oocytes were injected with 50 nl of 5 μM metal radionuclide (*M) in vehicle of composition 250 mM KCl, 5 mM nitrilotriacetic acid, trisodium salt, buffered to pH 7.0 with ∼4 mM 2-(N-morpholino)ethanesulfonic acid (MES) (GFS Chemicals, Columbus, OH). After injection, oocytes were briefly stored in ice-cold MBM (for 1–5 min) prior to the start of the efflux assay.
# To initiate the efflux assay, we placed oocytes in standard efflux medium of composition 100 mM NaCl, 1 mM KCl, 2 mM CaCl2, 1 mM MgCl2, 0.5 mM bathophenanthroline disulfonic acid (BPS), 1 mM nitrilotriacetic acid (NTA) trisodium salt, 50 μg/ml apotransferrin (ApoTf) (R&D Systems Inc., Minneapolis, MN), buffered with 0–5 mM MES, and 0–5 mM N′,N′-diethylpiperazine to obtain pH 7.5, with the following exceptions. To prepare Ca^2+-free medium, we replaced 2 mM CaCl2 with 4 mM NaCl and added 1 mM ethylene glycol-bis(2-aminoethyl ether)-N,N,N′,N′-tetraacetic acid (EGTA). To prepare Mg^2+-free medium, we replaced […] MgCl2 with 4 mM NaCl and added 1 mM ethylenediaminetetraacetic acid (EDTA). To measure ^55Fe efflux as a function of extracellular [Ca^2+] over the range 0.1–20 mM Ca^2+ (Figs. 1c, 6b), we adjusted [NaCl] and [CaCl2] on a 2:1 molar basis without the addition of EGTA. Oocytes were then transferred individually in 200 µl of medium to flat-bottomed wells of a 96-well plate and incubated 30 min—within the linear phase of metal efflux[10] —at 23–27 °C with gentle rocking. To terminate efflux, we removed 150 µl of medium (0.75 × [N0–Nt]) from each well for liquid-scintillation counting in Ultima Gold liquid-scintillation cocktail (Perkin-Elmer, Waltham, MA). The corresponding oocytes were rinsed twice in ice-cold medium (without BPS), solubilized with 5% (w/v) sodium dodecyl sulfate, and counted (Nt). We fit our data for oocyte radiotracer content (N) over time (Eq. (1)) and obtained the first-order rate constant (k) for metal radionuclide (*M) efflux for individual oocytes. N0 and Nt are counts per min (cpm) in the oocyte at time = 0 and time = t, respectively.1 Nt=N0⋅exp(-k⋅t) […]
# [3] = biological target: BbFpn D24A (Bdellovibrio bacteriovorus, UniProt Q6MLJ0, D24A); assay: Isothermal titration calorimetry, D24A BbFpn; assay type: binding, Bdellovibrio bacteriovorous
# [4] = biological target: BbFpn N196A (Bdellovibrio bacteriovorus, UniProt Q6MLJ0, N196A); assay: Isothermal titration calorimetry, N196A BbFpn; assay type: binding, Bdellovibrio bacteriovorous
# [5] = biological target: BbFpn E203A (Bdellovibrio bacteriovorus, UniProt Q6MLJ0, E203A); assay: Isothermal titration calorimetry, E203A BbFpn; assay type: binding, Bdellovibrio bacteriovorous
# [6] = biological target: BbFpn Q84E (Bdellovibrio bacteriovorus, UniProt Q6MLJ0, Q84E); assay: Isothermal titration calorimetry, Q84E BbFpn; assay type: binding, Bdellovibrio bacteriovorous
# [7] = Supplementary Figs. 5 and 9, one experiment
# wild type BbFpn, sequence (Q6MLJ0 whole entry): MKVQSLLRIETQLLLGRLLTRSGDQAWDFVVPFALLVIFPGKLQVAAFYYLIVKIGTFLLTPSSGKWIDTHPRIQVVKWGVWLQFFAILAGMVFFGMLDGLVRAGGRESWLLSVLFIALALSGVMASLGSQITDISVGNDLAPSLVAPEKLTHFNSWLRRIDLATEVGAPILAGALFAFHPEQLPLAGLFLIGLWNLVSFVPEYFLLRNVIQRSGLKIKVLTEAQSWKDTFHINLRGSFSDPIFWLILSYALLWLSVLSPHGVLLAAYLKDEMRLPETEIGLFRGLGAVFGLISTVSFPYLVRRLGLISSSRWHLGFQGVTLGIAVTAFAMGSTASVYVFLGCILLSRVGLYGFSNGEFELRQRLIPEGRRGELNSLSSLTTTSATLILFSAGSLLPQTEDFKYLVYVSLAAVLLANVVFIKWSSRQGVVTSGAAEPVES
# BbFpn Q84E, sequence (Q6MLJ0 whole entry Q84E): as the sequence (Q6MLJ0 whole entry) above, with Q84E counted along it
# BbFpn E203A, sequence (Q6MLJ0 whole entry E203A): as the sequence (Q6MLJ0 whole entry) above, with E203A counted along it
# BbFpn N196A, sequence (Q6MLJ0 whole entry N196A): as the sequence (Q6MLJ0 whole entry) above, with N196A counted along it
# BbFpn D24A, sequence (Q6MLJ0 whole entry D24A): as the sequence (Q6MLJ0 whole entry) above, with D24A counted along it
structure (smiles),measurement,setting,value
[K+] [K^+],Binding to wild type BbFpn by ITC (in words),[1],no observable binding
"C/C=C(/C)C(=O)O[C@H]1C(C)=C2[C@H]([C@@H]1OC(=O)CCCCCCC)[C@@](C)(OC(C)=O)C[C@H](OC(=O)CCC)[C@@]1(O)[C@H]2OC(=O)[C@@]1(C)O [thapsigargin, reference compound]",Effect on 55Fe efflux of pharmacologically raising the cytosolic Ca2+ concentration,[2],no effect
"[Mg+2] [Mg^2+, magnesium]",Ability of other alkaline-earth metals to substitute for Ca2+ in activating 55Fe efflux,[2],could not
same,Binding to wild type BbFpn by ITC (in words),[1]; same experimental conditions as for Ca2+,no observable binding
[Ba+2] [barium],Ability of other alkaline-earth metals to substitute for Ca2+ in activating 55Fe efflux,[2],could not
"[Sr+2] [Sr^2+, strontium]",Ability of other alkaline-earth metals to substitute for Ca2+ in activating 55Fe efflux,[2],could partially substitute
same,Kd,"[1]; 20 °C, 20 mM Tris pH 8, 50 mM NaCl, 0.004% LMNG, read-out: Kd (ITC)",4.6e-05 ± 3.3e-06 M
same,"-TΔS, ITC",[1]; [7],-19.2 kcal/mol
same,"N (sites), ITC",[1]; [7],0.478 ± 6.1e-2
same,"ΔG, ITC",[1]; [7],-5.83 kcal/mol
same,"ΔH, ITC",[1]; [7],13.4 ± 1.90 kcal/mol
same,Kd,"[1]; Supplementary Figs. 5 and 9, one experiment, read-out: KD (M), ITC",4.57e-05 M
same,Binding to D24A BbFpn by ITC (in words),[3],complete loss
same,Binding to N196A BbFpn by ITC (in words),[4],complete loss
same,Binding to E203A BbFpn by ITC (in words),[5],complete loss
same,Binding to Q84E BbFpn by ITC (in words),[6],no Ca^2+ or Sr^2+ binding
"C[C@H](CCC(=O)O)C[C@H](C)C[C@H](C)C(=O)/C=C(\O)[C@H](C)C[C@H](C)C/C=C/[C@@H](C)[C@@H](O)[C@@H](C)[C@@H](O)C[C@@H]1CC[C@@](C)([C@H]2CC[C@@](C)([C@@H](C)O)O2)O1 [ionomycin, reference compound]",Effect on 55Fe efflux of pharmacologically raising the cytosolic Ca2+ concentration,[2],no effect
[Na+] [Na^+],Effect of extracellular Na+ replacement with choline on Fpn-mediated 55Fe efflux,[2]; presence or absence of 100 mM extracellular Na+,unaffected
